In patent US20260297080A1, “BICYCLIC COMPOUNDS AS CDK INHIBITORS” (BeOne Medicines I GmbH, priority 2022, published 2026):

What was measured:
CDK2/Cyclin E1 = CDK2/Cyclin E1 (Homo sapiens, UniProt P24941); assay: CDK2/Cyclin E1 Biochemical Assay (TR-FRET), 0.060 mM ATP; conditions: 0.15 μM Rb (Ser780)-biotin substrate, pH7.0, 60 min preincubation, 120 min reaction, room temperature
Procedure, shortened: (§1)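 Phosphorylation of a biotin-tagged Rb Ser780 peptide (0.15 μM) is measured by time-resolved FRET between a europium-labelled phospho-specific antibody and streptavidin-XL665. Compound (0–10 μM) sits with enzyme 60 min first; the kinase reaction then proceeds 120 min at room temperature, pH 7.0.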

CDK1/Cyclin B1 = CDK1/Cyclin B1 (Homo sapiens, UniProt P06493); assay: CDK1/Cyclin B1 Biochemical Assay (TR-FRET), 0.015 mM ATP; conditions: 0.15 μM Rb (Ser780)-biotin substrate, pH7.0, 60 min preincubation, 120 min reaction, room temperature
Chain of CDK1/Cyclin B1 (P06493 whole entry): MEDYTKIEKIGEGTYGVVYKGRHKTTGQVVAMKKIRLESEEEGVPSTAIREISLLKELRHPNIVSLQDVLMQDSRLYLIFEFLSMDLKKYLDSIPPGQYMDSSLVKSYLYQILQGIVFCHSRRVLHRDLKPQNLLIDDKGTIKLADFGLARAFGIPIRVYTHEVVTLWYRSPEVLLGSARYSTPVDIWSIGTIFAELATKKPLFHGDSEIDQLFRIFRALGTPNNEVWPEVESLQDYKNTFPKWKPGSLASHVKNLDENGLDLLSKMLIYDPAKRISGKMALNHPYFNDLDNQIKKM
Chain of CDK1/Cyclin B1 (P14635 whole entry partner): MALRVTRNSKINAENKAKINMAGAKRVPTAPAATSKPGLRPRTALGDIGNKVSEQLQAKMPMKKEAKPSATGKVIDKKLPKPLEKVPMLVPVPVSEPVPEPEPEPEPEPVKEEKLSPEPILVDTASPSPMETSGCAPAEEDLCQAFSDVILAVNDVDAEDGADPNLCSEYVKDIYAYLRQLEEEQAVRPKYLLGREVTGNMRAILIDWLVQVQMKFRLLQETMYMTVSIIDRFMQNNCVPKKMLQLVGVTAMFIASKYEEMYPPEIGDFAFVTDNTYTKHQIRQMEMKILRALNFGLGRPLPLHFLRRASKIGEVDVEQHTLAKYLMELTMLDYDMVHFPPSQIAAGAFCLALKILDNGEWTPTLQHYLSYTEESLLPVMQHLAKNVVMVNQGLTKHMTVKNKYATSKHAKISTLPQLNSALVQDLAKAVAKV
Procedure, shortened: as §1

Row | SMILES | IC50 (CDK2/Cyclin E1) | IC50 (CDK1/Cyclin B1)
1 | CC(C)NC(=O)O[C@H]1CC[C@@H](c2cc(Nc3ccc4c(c3)C(C)NS4(=O)=O)n[nH]2)C1 (single isomer, unassigned) [Example 321b, cis-3-(3-((3-methyl-1,1-dioxido-2,3-dihydrobenzo[d]isothiazol-5-yl)amino)-1H-pyrazol-5-yl)cyclopentyl isopropylcarbamate] | 0.6 nM | 15 nM
2 | CC1(O)CCN(C(=O)O[C@H]2CC[C@@H](c3cc(Nc4ccc5c(c4)CNS5(=O)=O)n[nH]3)C2)C1 (relative stereo) [Example 176, cis-3-(3-((1,1-dioxido-2,3-dihydrobenzo[d]isothiazol-5-yl)amino)-1H-pyrazol-5-yl)cyclopentyl 3-hydroxy-3-methylpyrrolidine-1-carboxylate] | 8 nM | 230 nM
3 | CC[C@H](C)NC(=O)O[C@H]1CC[C@@H](c2cc(Nc3ccc4c(c3)NS(=O)(=O)C4)n[nH]2)C1 (relative stereo) [Example 306, cis-3-(3-((2,2-dioxido-1,3-dihydrobenzo[c]isothiazol-6-yl)amino)-1H-pyrazol-5-yl)cyclopentyl((S)-sec-butyl)carbamate] | 2.8 nM | 27 nM
4 | CC(C)NC(=O)O[C@H]1CC[C@@H](c2cc(Nc3ccc4c(c3F)CN(C[C@@H](N)C(C)(C)C)S4(=O)=O)n[nH]2)C1 (relative stereo) [Example 98, cis-3-(3-((2-((S)-2-amino-3,3-dimethylbutyl)-4-fluoro-1,1-dioxido-2,3-dihydrobenzo[d]isothiazol-5-yl)amino)-1H-pyrazol-5-yl)cyclopentyl isopropylcarbamate] | 20 nM | 1910 nM
5 | O=C(NCCC(F)(F)F)O[C@@H]1CC[C@H](c2cc(Nc3ccc4c(c3)CS(=O)(=O)N4)n[nH]2)C1 (relative stereo) [Example 198, cis-3-(3-((2,2-dioxido-1,3-dihydrobenzo[c]isothiazol-5-yl)amino)-1H-pyrazol-5-yl)cyclopentyl(3,3,3-trifluoropropyl)carbamate] | 18 nM | 75 nM
6 | [2H]C([2H])([2H])N1c2ccc(Nc3cc([C@@H]4CC[C@H](OC(=O)NC(C)C)C4)[nH]n3)c(F)c2CS1(=O)=O (single isomer, unassigned) [Example 267b, cis-3-(3-((4-fluoro-1-(methyl-d3)-2,2-dioxido-1,3-dihydrobenzo[c]isothiazol-5-yl)amino)-1H-pyrazol-5-yl)cyclopentyl isopropylcarbamate] | 6.4 nM | 73 nM
7 | CC(C)NC(=O)O[C@H]1CC[C@@H](c2cc(Nc3ccc4c(c3)NS(=O)(=O)N4)n[nH]2)C1 (relative stereo) [Example 320, cis-3-(3-((2,2-dioxido-1,3-dihydrobenzo[c][1,2,5]thiadiazol-5-yl)amino)-1H-pyrazol-5-yl)cyclopentyl isopropylcarbamate] | 134 nM | 1760 nM
8 | COCC(C)NC(=O)O[C@H]1CC[C@@H](c2cc(Nc3ccc4c(c3F)CS(=O)(=O)N4C3CC3)n[nH]2)C1 (relative stereo) [Example 367, cis-3-(3-((1-cyclopropyl-4-fluoro-2,2-dioxido-1,3-dihydrobenzo[c]isothiazol-5-yl)amino)-1H-pyrazol-5-yl)cyclopentyl(1-methoxypropan-2-yl)carbamate] | 1.7 nM | 117 nM
9 | CC1NS(=O)(=O)c2ccc(Nc3cc([C@@H]4CC[C@H](OC(=O)NC5(C)CC5)C4)[nH]n3)cc21 (single isomer, unassigned) [Example 322d, cis-3-(3-((3-methyl-1,1-dioxido-2,3-dihydrobenzo[d]isothiazol-5-yl)amino)-1H-pyrazol-5-yl)cyclopentyl(1-methylcyclopropyl)carbamate] | 0.7 nM | 5.6 nM
10 | CC(C)NC(=O)O[C@H]1CC[C@@H](c2cc(Nc3ccc4c(c3F)CN(C3CCC(=O)NC3)S4(=O)=O)n[nH]2)C1 (relative stereo) [Example 82, cis-3-(3-((4-fluoro-1,1-dioxido-2-(6-oxopiperidin-3-yl)-2,3-dihydrobenzo[d]isothiazol-5-yl)amino)-1H-pyrazol-5-yl)cyclopentyl isopropylcarbamate] | 10 nM | 381 nM
11 | CC(C)NC(=O)O[C@H]1CC[C@@H](c2cc(Nc3ccc4c(c3)S(=O)(=O)NC4C)[nH]n2)C1 (single isomer, unassigned) [Example 5d, cis-3-(5-((3-methyl-1,1-dioxido-2,3-dihydrobenzo[d]isothiazol-6-yl)amino)-1H-pyrazol-3-yl)cyclopentyl isopropylcarbamate] | 2.9 nM | 45 nM
12 | CC(C)NC(=O)O[C@H]1CC[C@@H](c2cc(Nc3ccc4c(c3)S(=O)(=O)NC4C)[nH]n2)C1 (single isomer, unassigned) [Example 5c, cis-3-(5-((3-methyl-1,1-dioxido-2,3-dihydrobenzo[d]isothiazol-6-yl)amino)-1H-pyrazol-3-yl)cyclopentyl isopropylcarbamate] | 4.2 nM | 95 nM
13 | CC(C)NC(=O)O[C@H]1CC[C@@H](c2cc(Nc3ccc4c(c3)C(C)S(=O)(=O)N4C)n[nH]2)C1 (relative stereo) [Example 207, cis-3-(3-((1,3-dimethyl-2,2-dioxido-1,3-dihydrobenzo[c]isothiazol-5-yl)amino)-1H-pyrazol-5-yl)cyclopentyl isopropylcarbamate] | 6.6 nM | 35 nM
14 | O=C(NC1CCC12CC2)O[C@H]1CC[C@@H](c2cc(Nc3ccc4c(c3F)CNS4(=O)=O)n[nH]2)C1 (relative stereo) [Example 152, cis-3-(3-((4-fluoro-1,1-dioxido-2,3-dihydrobenzo[d]isothiazol-5-yl)amino)-1H-pyrazol-5-yl)cyclopentyl spiro[2.3]hexan-4-ylcarbamate] | 3.6 nM | 324 nM
15 | CC[C@H](C)NC(=O)O[C@H]1CC[C@@H](c2cc(Nc3ccc4c(c3F)CS(=O)(=O)N4C3COC3)n[nH]2)C1 (single isomer, unassigned) [Example 261a] | 1.3 nM | 119 nM
16 | Cc1cc(Nc2cc([C@@H]3CC[C@H](OC(=O)NC(C)C)C3)[nH]n2)cc2c1NS(=O)(=O)C2 (relative stereo) [Example 242, cis-3-(3-((7-methyl-2,2-dioxido-1,3-dihydrobenzo[c]isothiazol-5-yl)amino)-1H-pyrazol-5-yl)cyclopentyl isopropylcarbamate] | 5.1 nM | 70 nM
17 | CC(C)NC(=O)O[C@H]1CC[C@@H](c2cc(Nc3cc4c(cc3F)S(=O)(=O)NC4)n[nH]2)C1 (single isomer, unassigned) [Example 12b, cis-3-(3-((6-fluoro-1,1-dioxido-2,3-dihydrobenzo[d]isothiazol-5-yl)amino)-1H-pyrazol-5-yl)cyclopentyl isopropylcarbamate] | 9.3 nM | 359 nM
18 | O=C(NC1CC2(CC2)C1)O[C@H]1CC[C@@H](c2cc(Nc3ccc4c(c3F)CNS4(=O)=O)n[nH]2)C1 (relative stereo) [Example 160, cis-3-(3-((4-fluoro-1,1-dioxido-2,3-dihydrobenzo[d]isothiazol-5-yl)amino)-1H-pyrazol-5-yl)cyclopentyl spiro[2.3]hexan-5-ylcarbamate] | 105 nM | 579 nM
19 | [2H]C([2H])([2H])N1c2ccc(Nc3cc([C@@H]4CC[C@H](OC(=O)NC5(C)CC5)C4)[nH]n3)c(F)c2CS1(=O)=O (relative stereo) [Example 270, cis-3-(3-((4-fluoro-1-(methyl-d3)-2,2-dioxido-1,3-dihydrobenzo[c]isothiazol-5-yl)amino)-1H-pyrazol-5-yl)cyclopentyl(1-methylcyclopropyl)carbamate] | 1.7 nM | 37 nM
20 | CC(C)NC(=O)O[C@H]1CC[C@@H](c2cc(Nc3ccc4c(c3)CCNS4(=O)=O)n[nH]2)C1 (relative stereo) [Example 172, cis-3-(3-((1,1-dioxido-3,4-dihydro-2H-benzo[e][1,2]thiazin-6-yl)amino)-1H-pyrazol-5-yl)cyclopentyl isopropylcarbamate] | 0.7 nM | 14 nM
21 | CC(C)NC(=O)O[C@H]1CC[C@@H](c2cc(Nc3ccc4c(c3)CN(C)S4(=O)=O)n[nH]2)C1 (relative stereo) [Example 11, cis-3-(3-((2-methyl-1,1-dioxido-2,3-dihydrobenzo[d]isothiazol-5-yl)amino)-1H-pyrazol-5-yl)cyclopentyl isopropylcarbamate] | 4.1 nM | 140 nM
22 | CC(C)(C)NC(=O)O[C@H]1CC[C@@H](c2cc(Nc3ccc4c(c3)CS(=O)(=O)N4)n[nH]2)C1 [Example 403b] | 1.1 nM | 7.3 nM
23 | CN1c2ccc(Nc3cc([C@@H]4CC[C@H](OC(=O)NC5(C)CCOC5)C4)[nH]n3)c(F)c2CS1(=O)=O (single isomer, unassigned) [Example 349b, cis-3-(3-((4-fluoro-1-methyl-2,2-dioxido-1,3-dihydrobenzo[c]isothiazol-5-yl)amino)-1H-pyrazol-5-yl)cyclopentyl(3-methyltetrahydrofuran-3-yl)carbamate] | 1.2 nM | 88 nM
24 | CC(C)NC(=O)O[C@H]1CC[C@@H](c2cc(Nc3cc4c(cc3F)NS(=O)(=O)C4)n[nH]2)C1 (single isomer, unassigned) [Example 292a, cis-3-(3-((6-fluoro-2,2-dioxido-1,3-dihydrobenzo[c]isothiazol-5-yl)amino)-1H-pyrazol-5-yl)cyclopentyl isopropylcarbamate] | 13 nM | 1410 nM
25 | CC(C)NC(=O)O[C@H]1CC[C@@H](c2cc(Nc3cc(CO)c4c(c3F)CNS4(=O)=O)n[nH]2)C1 (relative stereo) [Example 365, cis-3-(3-((4-fluoro-7-(hydroxymethyl)-1,1-dioxido-2,3-dihydrobenzo[d]isothiazol-5-yl)amino)-1H-pyrazol-5-yl)cyclopentyl isopropylcarbamat] | > 10000 nM | > 10000 nM
